Read-outs that look alike come from different tables or passages of the source.
Columns and labels:
[1] = cited from earlier work
Rats = assay: 7-day toxicity in rats; assay type: in vivo; settings: 30 and 100 mg/kg once a day for 7 days
Description: Rats were administered compound I (R₁ and R₂ = H; X = (CH₂)m; m = 6; R,R isomer) in doses of 30 and 100 mg/kg once a day for 7 days.

[2] = system: spontaneously hypertensive rat (SHR); assay: Diuretic activity in saline-loaded spontaneously hypertensive rat; assay type: in vivo
Description: Additionally, these compounds were examined for diuretic activity for 6 hours following oral compound administration in the saline-loaded spontaneously hypertensive rat (SHR). Methods for this assay have been previously described (Rosenkranz, et al, Proc. West. Pharmacol. Soc. 28:87, 1985). The diuretic and natriuretic effects elicited by these compounds were characterized by an immediate onset of action.
Male spontaneously hypertensive SHR/NCr1BR rats weighing 320-430 gms were divided into four groups of seven animals. All animals were food- and water-deprived overnight. The following morning, each group of rats was hydrated with deionized water (20 ml/kg, po) forty-five minutes prior to the administration of vehicle or the test compound (R₁ and R₂ = H; X = (CH₂)n, m = 6).
Following vehicle or drug, the rats were placed in individual metabolic units. Fifteen minutes post-dose the animals were saline-loaded (30 ml/kg, po). Urine was collected at 1, 3 and 6 hour intervals post-saline-load. Urine volumes were measured and sodium and potassium levels were determined by flame photometry.
A two-way analysis of variance with time, treatment and their interaction was run as a repeated measures analysis. A secondary model of one-way analysis of variance (by time) was run using specified contrasts. The p-values for the contrasts were adjusted using Fisher's LSD strategy at each time point.

[3] = system: spontaneously hypertensive rats; assay: Oral antihypertensive activity in conscious restrained spontaneously hypertensive rat; assay type: in vivo
Description: The compounds of this invention were screened for oral antihypertensive activity in the conscious restrained rat. Adult male SHR were instrumented for blood pressure and heart rate measurements under light ether anesthesia. The animals were maintained on a plexiglass restraining board following surgery, and were allowed a 1 hour recovery period prior to the oral administration of the test compounds.
Male spontaneously hypertensive rats, SHR/NVr1Br (320-410 g) were fasted overnight. The following morning the left femoral artery and vein of each rat was cannulated under light ether anesthesia. following surgery, the rats were placed on a rat restraining board and allowed to recover from the effects of the ether for 1 hour. ECG leads were placed on the animal's chest to monitor heart reate. Animals were divided into groups of 4 and dosed with the test compound (R₁ and R₂ = H; X = (CH₂)m; m = 6).
Blood pressure and heart rate readings were taken at 5 minute intervals for the first 15 minutes and every 15 minutes thereafter for a duration of 4 hour post-compound administration. Data was evaluated by two-tailed paired t-tests.

DA₁ receptor = assay: Goldberg renal in vivo dog model (DA1 activity, intra-arterial); settings: for Relative Efficacy to DA₁ Standard: optimal response divided by optimal response of dopamine
Description: The compounds were subsequently tested following intra-arterial administration in an in situ renal and femoral arterial preparation in the dog, as developed by L.I. […] Details of the methodology are provided in the European J. […] The compound was injected directly into the renal or femoral artery for analysis of DA₁ or DA₂ activity, respectively. […] Specific DA₁ or DA₂ activity of the tested compound was verified by Sch 23390 or domperidone blockade. Adult mongrel dogs of either sex (11-20 kg) were anesthetized with pentobarbital sodium (33 mg/kg, i.v.). the animals were intubated and ventilated with room air using a Harvard respirator. The abdominal aorta was catheterized with a Millar micro-tip (size: 5F) transducer via the right femoral artery for pressure monitoring. The right femoral vein was cannulated with PE-160 tubing for iv saline infusion, as well as, supplemental pentobarbital administration. The left renal artery was isolated through a lateral abdominal incision. An electromagnetic flowprobe of the appropriate size (9-12 mm circ) was placed around the artery and connected to a Carolina Medical electromagnetic flowmeter. Surface ECG leads were placed subcutaneously on the chest and limbs to monitor heart rate. A 25 gauge 3/4" needle bent 90°, 4 mm from the tip, was placed in the renal artery proximal to the probe and connected to an infusion pump delivering saline at a constant rate of 1 ml/min. […] Blood pressure was maintained by supplemental saline (10-20 ml/kg, iv). Bradykinin, a standard for nonspecific vasodilation, was given at 0.62 nmole doses, in 0.2 ml saline, i.a., prior to generating a dose response curve for dopamine in which 4-fold increase doses, ranging from 3 to 48 nmoles, were injected i.a. in 0.2 ml of saline. Test compound was injected similarly in 4-fold increasing doses up to a maximum of 3000 nmoles. […] The optimal dose of compound was defined as that which produced a maximum increase in blood flow before causing a change in systemic blood pressure. Efficacy ratios were determined by division of the optimal response of the test compound by the optimal response of the standard agent. ED₅₀ values were derived by regression analysis from individually generated dose response curves. Potency ratios were the quotients calculated from the division of the standard agent ED₅₀ by the ED₅₀ of the test compound.

DA₂ receptor = assay: Goldberg femoral in vivo dog model (DA2 activity, intra-arterial)
Description: The compounds were subsequently tested following intra-arterial administration in an in situ renal and femoral arterial preparation in the dog, as developed by L.I. Goldberg, to test for DA1 and DA2 dopamine activity, respectively. Details of the methodology are provided in the European J. Pharmacol., 89:137, 1983, as well as in Hypertension, 6:1-25, 1984.
The compound was injected directly into the renal or femoral artery for analysis of DA₁ or DA₂ activity, respectively. […] The compound was tested for relative activity in comparison to the standard DA₁ agonist, dopamine or the standard DA₂ agonist, DPDA. Specific DA₁ or DA₂ activity of the tested compound was verified by Sch 23390 or domperidone blockade.
Adult mongrel dogs of either sex (11-20 kg) were anesthetized with pentobarbital sodium (33 mg/kg, i.v.). the animals were intubated and ventilated with room air using a Harvard respirator. […]
The optimal dose of compound was defined as that which produced a maximum increase in blood flow before causing a change in systemic blood pressure. Efficacy ratios were determined by division of the optimal response of the test compound by the optimal response of the standard agent. […] Potency ratios were the quotients calculated from the division of the standard agent ED₅₀ by the ED₅₀ of the test compound. […]

Cl.NCCc1ccc(O)c(O)c1 [DOPAMINE HYDROCHLORIDE, 3,4-Dihydroxyphenethylamine Hydrochlorid]
Solubility ([1]; in alcohol): soluble | Solubility ([1]; in chloroform and ether): practically insoluble | Solubility ([1]; in water): Freely soluble

Oc1ccc(C[C@H]2CCCN2CCCCCCN2CCC[C@@H]2Cc2ccc(O)c(O)c2)cc1O [Test Compound, R,R-1,6-bis[2-(3,4-dihydroxybenzyl)pyrrolidin-1-yl]hexane]
treatment related changes in clinical condition, body weight, or food intake (Rats): No treatment related changes were noted | urine and sodium retention ([2]; 3 mg/kg, po, urine at 1 hour, sodium at 1 and 3 hours): significant urine and sodium retention | diuresis and natriuresis ([2]; 10 mg/kg oral, one hour post administration): significant diuresis and natriuresis | diuresis and natriuresis ([2]; 30 mg/kg, 1, 3 and 6 hours post-dose): diuresis and natriuresis (p<0.05) were observed | kaliuresis ([2]; 30 mg/kg, po, 1 and 3 hour post-dose): significant kaliuresis | HR increase ([3]; 3 mg/kg): 6% | duration of HR increase ([3]; 3 mg/kg): 90 min | HR max. response ([3]; 10 mg/kg, decrease, p<0.05): -14% | duration of HR decrease ([3]; 10 mg/kg, post-compound administration): 1 h | HR change ([3]; 30 mg/kg): did not elicit any biologically significant changes in HR | MBP change ([3]; 3, 10 and 30 mg/kg): significant decrease in MBP | Peak decreases in MBP ([3]; across 3, 10 and 30 mg/kg): -17 to -22% | duration of action (MBP decrease) ([3]; across 3, 10 and 30 mg/kg): 15 to 210 min | Relative Potency to DA₁ Standard (DA₁ receptor; ED50 of dopamine divided by ED50 of test compound): 11.71 | Relative Efficacy to DA₁ Standard (DA₁ receptor): 1.05 | ED₅₀ (DA₁ receptor; renal blood flow increase, injection into renal artery, anesthetized dog, phenoxybenzamine pretreated): 0.63 nmol

CCCN(CCC)CCc1ccc(O)c(O)c1 [DPDA, di-propyl dopamine]
ED₅₀ (DA₂ receptor; femoral blood flow increase, injection into femoral artery, anesthetized dog): 1.00 nmol | Relative Efficacy to DA₂ Standard (DA₂ receptor; optimal response divided by optimal response of DPDA): 1.00

NCCc1ccc(O)c(O)c1 [Dopamine, 3-hydroxytyramine]
Relative Efficacy to DA₁ Standard (DA₁ receptor): 1.00

Source: EP0404115A1, “Bis(benzylpyrrolidine)Derivatives as dopamine agonists” (SYNTEX (U.S.A.) INC., priority 1989, dated 1990)
